From EP4786466A1, “QUINAZOLINE DERIVATIVE, SALT THEREOF, AND PHARMACEUTICAL COMPOSITION COMPRISING SAME AS ACTIVE INGREDIENT” (Korea Research Institute of Chemical Technology, priority 2023, dated 2025)
Read-outs that look alike come from different tables or passages of the source.

Experiments:
[1] = in vitro; settings: human
Description: (§1) MCF7 breast cancer cell lines and MCF10A normal breast cancer cell lines were treated with serial dilutions of the compounds of the present invention ranging from 1 µM to 15.63 nM for 72 hours. Cell viability was measured by the WST-8 assay (Cyto XTM cell viability assay kit; LPS solution, Daejeon, Korea) according to the manufacturer's instructions.

[2] = test system: MCF7 breast cancer cell lines; test: Cell viability analysis, WST-8 assay, MCF7; settings: for viability at 1 µM: read-out: Cell viability (%) WST-8, MCF7 (1 µM), compound 1 µM, 72 hours; for viability at 1.25 µM: read-out: Cell viability (%) WST-8, MCF7, footnote a: concentration 1.25 µM, 72 hours
Description: as §1

[3] = target: T1, Recombinant GST-TAG-MASTL (Homo sapiens, UniProt Q96GX5); test: HTRF-based kinase assay (HTRF KinEASE assay kit); assay type: biochemical; settings: for activity at 1 µM: read-out: MASTL activity (%) HTRF (1 µM); for activity at 10 µM: footnote b: concentration 10 µM
T1 construct: GST; purchased Thermo Fisher Scientific
T1 sequence (Q96GX5 1-879): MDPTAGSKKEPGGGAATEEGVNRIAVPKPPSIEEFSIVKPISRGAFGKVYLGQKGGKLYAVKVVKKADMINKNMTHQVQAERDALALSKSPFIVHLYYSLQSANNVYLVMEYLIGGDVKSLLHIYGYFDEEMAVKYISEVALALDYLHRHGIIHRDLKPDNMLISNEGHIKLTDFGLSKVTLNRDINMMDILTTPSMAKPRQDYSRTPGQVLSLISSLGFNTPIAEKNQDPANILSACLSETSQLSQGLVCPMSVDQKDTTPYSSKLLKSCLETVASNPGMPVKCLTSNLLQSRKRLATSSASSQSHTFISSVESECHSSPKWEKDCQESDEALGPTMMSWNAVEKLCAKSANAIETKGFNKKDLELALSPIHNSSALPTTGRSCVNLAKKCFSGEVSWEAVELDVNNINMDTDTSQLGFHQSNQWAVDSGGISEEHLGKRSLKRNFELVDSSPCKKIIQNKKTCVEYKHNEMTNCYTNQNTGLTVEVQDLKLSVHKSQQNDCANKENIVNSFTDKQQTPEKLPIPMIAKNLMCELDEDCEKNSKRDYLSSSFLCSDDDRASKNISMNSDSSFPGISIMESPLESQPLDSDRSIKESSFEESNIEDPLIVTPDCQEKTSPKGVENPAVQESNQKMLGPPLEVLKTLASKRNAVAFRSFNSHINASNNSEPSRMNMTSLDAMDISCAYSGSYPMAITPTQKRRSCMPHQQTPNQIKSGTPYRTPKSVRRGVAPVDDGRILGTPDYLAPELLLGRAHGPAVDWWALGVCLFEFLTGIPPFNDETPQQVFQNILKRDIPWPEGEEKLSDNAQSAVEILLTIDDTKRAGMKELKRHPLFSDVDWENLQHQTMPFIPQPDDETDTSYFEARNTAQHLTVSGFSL
Excerpt: Recombinant GST-TAG-MASTL (Thermo Fisher Scientific, MA, USA) was used for HTRF-based kinase assays. The HTRF KinEASE assay kit (CisBio, MA, USA) was used according to the manufacturer's instructions.

[4] = test system: pENSA; test: pENSA level by immunofluorescence (described method: in vitro kinase analysis with GST-tag-MASTL and His-tag-ENSA); assay type: cell-based
Description: Two recombinant GST-tag-MASTL (Thermo Fisher Scientific) and His-tag-ENSA (Sino Biological Inc., Beijing, China) were used for in vitro kinase analysis. In vitro kinase analysis was performed as described in the literature [Front Oncol 2020, 10, 571601, 39-202021-10-20doi:10.3389/fonc.2020.571601.].
Phosphorylated ENSA (pENSA), which is activated by phosphorylation by MASTL, can be utilized as a biomarker as it is expected that its activity will be inhibited along with the inhibition of MASTL. In the cell viability assay, MCF7 refers to a breast cancer cell line, and MCF10A refers to a normal breast […] cell line.

[5] = read-out: MASTL activity (%) HTRF

N#CCc1ccc(Nc2nc(Nc3cccc(N)c3)c3ccccc3n2)cc1 [compound 3n, 2-(4-((4-((3-aminophenyl)amino)quinazolin-2-yl)amino)phenyl)acetonitrile]
viability at 1 µM [1]: 95.2%
viability at 1 µM ([2]; Homo sapiens, MCF7, 72 h): 117%
activity at 1 µM ([3]; compound 1 µM): 125%

CNc1nc(Nc2cc(C3CC3)[nH]n2)c2ccccc2n1 [compound 4cb, N^4-(5-cyclopropyl-1H-pyrazol-3-yl)-N^2-methylquinazoline-2,4-diamine]
viability at 1.25 µM [1]: 102%
viability at 1.25 µM ([2]; Homo sapiens, MCF7, 72 h): 87.5%
activity at 10 µM [3, 5]: 53.1%

CC(C)(C)OC(=O)N1CC2C(C1)C2Nc1nc(Nc2cc(C3CC3)[nH]n2)c2ccccc2n1 (stereo not drawn) [compound 4cg, tert-butyl 6-((4-((5-cyclopropyl-1H-pyrazol-3-yl)amino)quinazolin-2-yl)amino)-3-azabicyclo[3.1.0]hexane-3-carboxylate]
viability at 1 µM [1]: 117%
Cell viability (%) WST-8, MCF7 (1 µM) ([2]; compound 1 µM, 72 hours, 1 µM): 73.6%
MASTL activity (%) HTRF (1 µM) ([3]; compound 1 µM, 1 µM): 76.4%

N#Cc1ccc(CNc2nc(Nc3cc(C4CC4)[nH]n3)c3ccccc3n2)cc1 [compound 4ch, 4-(((4-((5-cyclopropyl-1G-pyrazol-3-yl)amino)quinazolin-2-yl)amino)methyl)benzonitrile]
viability at 1 µM ([1]; mcf10a cells): 32%
viability at 1 µM ([2]; Homo sapiens, MCF7, 72 h): 73.6%
activity at 1 µM [3]: 43%

N#Cc1ccc(Nc2nc(Nc3cc(C4CC4)[nH]n3)c3ccccc3n2)cc1 [compound 4d, 4-((4-((5-cyclopropyl-1G-pyrazol-3-yl)amino)quinazolin-2-yl)amino)benzonitrile]
viability at 1.25 µM ([1]; mcf10a cells): 3.2%
viability at 1.25 µM ([2]; Homo sapiens, MCF7, 72 h): 5.6%
selectivity for breast cancer cells over normal cells in the cell viability assay ([2]; MCF7 versus MCF10A): selectively inhibit only breast cancer cells
IC50 [3]: 625 nM
activity at 1.25 µM [3, 5]: 32.6%

CC(C)NC(=O)N1CC2CC1CN2c1nc(Nc2cc(C3CC3)[nH]n2)c2ccccc2n1 (stereo not drawn) [compound 15b, 5-(4-((5-cyclopropyl-1G-pyrazol-3-yl)amino)quinazolin-2-yl)-M-isopropyl-2,5-diazabicyclo[2.2.1]heptane-2-carboxamide]
viability at 1 µM ([1]; mcf10a cells): 77.2%
viability at 1 µM ([2]; Homo sapiens, MCF7, 72 h): 75.3%

O=S(=O)(c1ccc2ccccc2c1)N1CC2CC1CN2c1nc(Nc2cc(C3CC3)[nH]n2)c2ccccc2n1 (stereo not drawn) [compound 15y, M-(5-cyclopropyl-1G-pyrazol-3-yl)-2-(5-(naphthalen-2-ylsulfonyl)-2,5-diazabicyclo[2.2.1]heptan-2-yl)quinazolin-4-amine]
viability at 10 µM ([2]; Homo sapiens, MCF7, 72 h, read-out: Cell viability (%) WST-8, MCF7, footnote b: concentration 10 µM, 72 hours): 64.1%
IC50 ([2]; Homo sapiens, MCF7, 72 h, read-out: IC50 Cell viability (MCF7)): 8.2 µM
IC50 ([3]; HTRF, read-out: IC50(nM) MASTL activity): 928 nM
activity at 10 µM [3, 5]: 18.5%
pENSA (%) Immunofluor ecense ([4]; footnote b: concentration 10 µM): 35.5^b %
IC50 ([4]; unit µM, read-out: IC50 pENSA): 6.9 µM

Cc1cc(Nc2nc(N3CC4CC3CN4C(=O)NC(C)C)nc3ccccc23)n[nH]1 (stereo not drawn) [compound 27a, M-isopropyl-5-(4-((5-methyl-1G-pyrazol-3-yl)amino)quinazolin-2-yl)-2,5-diazabicyclo[2.2.1]heptane-2-carboxamide]
viability at 1 µM ([1]; mcf10a cells): 90.7%
viability at 1 µM ([2]; Homo sapiens, MCF7, 72 h): 95.6%

Cc1cc(Nc2nc(N3CC4CC3CN4C(=O)Nc3ccccc3)nc3ccccc23)n[nH]1 (stereo not drawn) [compound 27b, 5-(4-((5-methyl-1G-pyrazol-3-yl)amino)quinazolin-2-yl)-M-phenyl-2,5-diazabicyclo[2.2.1]heptane-2-carboxamide]
viability at 1 µM ([1]; mcf10a cells): 36.1%
viability at 1 µM ([2]; Homo sapiens, MCF7, 72 h): 83.2%

CC(C)NC(=O)N1CC2CC1CN2c1nc(Nc2cn[nH]c2)c2ccccc2n1 (stereo not drawn) [compound 28a, 5-(4-((1G-pyrazol-4-yl)amino)quinazolin-2-yl)-M-isopropyl-2,5-diazabicyclo[2.2.1]heptane-2-carboxamide]
viability at 1.25 µM ([1]; mcf10a cells): 93.9%
viability at 1 µM ([2]; Homo sapiens, MCF7, 72 h): 99%

O=C(Nc1ccccc1)N1CC2CC1CN2c1nc(Nc2cn[nH]c2)c2ccccc2n1 (stereo not drawn) [compound 28b, 5-(4-((1G-pyrazol-4-yl)amino)quinazolin-2-yl)-M-phenyl-2,5-diazabicyclo[2.2.1]heptane-2-carboxamide]
viability at 1 µM ([1]; mcf10a cells): 37%
viability at 1 µM ([2]; Homo sapiens, MCF7, 72 h): 91.2%
